Reference: PubChem BioAssay (NCI)
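A five-concentration, 48-hour dose response in 96-well plates underlies each endpoint, interpolated linearly between surrounding concentrations. GI50 marks 50% less growth. TGI marks complete inhibition of growth.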

Key:
Assay in all cases: inhibition of tumour cell growth, NCI panel, 48 h
[1] = tested on: 786-0 renal
[2] = tested on: A498 renal
[3] = tested on: A549 NSCLC
[4] = tested on: BT-549 breast
[5] = tested on: CCRF-CEM leukemia
[6] = tested on: DU-145 prostate
[7] = tested on: EKVX NSCLC
[8] = tested on: HCC-2998 colon
[9] = tested on: HCT-116 colon
[10] = tested on: HCT-15 colon
[11] = tested on: HL-60(TB) leukemia
[12] = tested on: HOP-62 NSCLC
[13] = tested on: HOP-92 NSCLC
[14] = tested on: HT29 colon
[15] = tested on: IGROV1 ovarian
[16] = tested on: K-562 leukemia
[17] = tested on: KM12 colon
[18] = tested on: LOX IMVI melanoma
[19] = tested on: M14 melanoma
[20] = tested on: MALME-3M melanoma
[21] = tested on: MCF7 breast
[22] = tested on: MDA-MB-231 breast
[23] = tested on: MDA-MB-435
[24] = tested on: MOLT-4 leukemia
[25] = tested on: NCI-H226 lung
[26] = tested on: NCI-H23 lung
[27] = tested on: NCI-H460 lung
[28] = tested on: NCI-H522 lung
[29] = tested on: NCI/ADR-RES ovarian
[30] = tested on: OVCAR-3 ovarian
[31] = tested on: OVCAR-4 ovarian
[32] = tested on: OVCAR-5 ovarian
[33] = tested on: OVCAR-8 ovarian
[34] = tested on: PC-3 prostate
[35] = tested on: RPMI-8226 leukemia
[36] = tested on: RXF 393 renal
[37] = tested on: SF-268 CNS
[38] = tested on: SF-295 CNS
[39] = tested on: SF-539 CNS
[40] = tested on: SK-MEL-2 melanoma
[41] = tested on: SK-MEL-28 melanoma
[42] = tested on: SK-MEL-5 melanoma
[43] = tested on: SK-OV-3 ovarian
[44] = tested on: SN12C renal
[45] = tested on: SNB-19 CNS
[46] = tested on: SNB-75 CNS
[47] = tested on: SR leukemia
[48] = tested on: SW-620 colon
[49] = tested on: T-47D breast
[50] = tested on: TK-10 renal
[51] = tested on: U251 CNS
[52] = tested on: UACC-257 melanoma
[53] = tested on: UACC-62 melanoma
[54] = tested on: UO-31 renal
[55] = tested on: ACHN renal
[56] = tested on: CAKI-1 renal
[57] = tested on: COLO 205 colon
[58] = tested on: HS 578T breast

With `COc1ccc2[nH]c(=O)c(/C=C/C(=O)c3ccccc3OC)cc2c1` the GI50 [1] was 0.378 µM, the TGI [1] was 1.56 µM and the GI50 [2] was 0.656 µM. It also gave a TGI [2] of 4.55 µM, a GI50 [3] of 2.09 µM and a TGI [3] of 10.4 µM. The GI50 [4] was 0.387 µM, the TGI [4] was 2.42 µM and the GI50 [5] was 0.392 µM. For the same compound, the TGI [5] was greater than 100 µM, the GI50 [6] was 0.529 µM and the TGI [6] was 1.96 µM. It also gave a GI50 [7] of 2.05 µM, a TGI [7] of 10.5 µM and a GI50 [8] of 1.57 µM. For the same compound, the TGI [8] was 3.03 µM, the GI50 [9] was 0.348 µM and the TGI [9] was 1.48 µM. The GI50 [10] was 0.395 µM, the TGI [10] was 2.05 µM and the GI50 [11] was 0.206 µM. The TGI [11] was 0.883 µM, the GI50 [12] was 1.24 µM and the TGI [12] was 5.32 µM. The GI50 [13] was 1.57 µM, the TGI [13] was 6.17 µM and the GI50 [14] was 0.293 µM. It also gave a TGI [14] of 1.37 µM, a GI50 [15] of 0.582 µM and a TGI [15] of 17 µM. It also gave a GI50 [16] of 0.162 µM, a TGI [16] greater than 100 µM and a GI50 [17] of 0.321 µM. For the same compound, the TGI [17] was 1.58 µM, the GI50 [18] was 0.379 µM and the TGI [18] was 1.61 µM. It also gave a GI50 [19] of 0.278 µM, a TGI [19] of 1.41 µM and a GI50 [20] of 0.766 µM. It also gave a TGI [20] of 8.09 µM, a GI50 [21] of 0.312 µM and a TGI [21] of 7.48 µM. It also gave a GI50 [22] of 1.44 µM, a TGI [22] of 11 µM and a GI50 [23] of 0.0564 µM. It also gave a TGI [23] of 0.275 µM, a GI50 [24] of 0.421 µM and a TGI [24] of 27.1 µM. The GI50 [25] was 3.34 µM, the TGI [25] was 18.5 µM and the GI50 [26] was 1.33 µM. The TGI [26] was 3.93 µM, the GI50 [27] was 0.38 µM and the TGI [27] was 2.25 µM. It also gave a GI50 [28] of 0.352 µM, a TGI [28] of 2.06 µM and a GI50 [29] of 0.273 µM. The TGI [29] was 20 µM, the GI50 [30] was 0.359 µM and the TGI [30] was 1.64 µM. The GI50 [31] was 4.07 µM, the TGI [31] was 23.2 µM and the GI50 [32] was 1.97 µM. For the same compound, the TGI [32] was 10.4 µM, the GI50 [33] was 0.874 µM and the TGI [33] was 11.6 µM. The GI50 [34] was 0.842 µM, the TGI [34] was 3.75 µM and the GI50 [35] was 0.385 µM. The TGI [35] was 2.21 µM, the GI50 [36] was 1.02 µM and the TGI [36] was 2.57 µM. The GI50 [37] was 0.69 µM, the TGI [37] was 10.5 µM and the GI50 [38] was 0.529 µM. It also gave a TGI [38] of 12.1 µM, a GI50 [39] of 0.443 µM and a TGI [39] of 2.49 µM. For the same compound, the GI50 [40] was 0.694 µM, the TGI [40] was 4.39 µM and the GI50 [41] was 1.52 µM. For the same compound, the TGI [41] was 7.31 µM, the GI50 [42] was 0.728 µM and the TGI [42] was 2.08 µM. The GI50 [43] was 2.23 µM, the TGI [43] was 12.8 µM and the GI50 [44] was 0.537 µM. For the same compound, the TGI [44] was 10.3 µM, the GI50 [45] was 0.362 µM and the TGI [45] was 1.79 µM. For the same compound, the GI50 [46] was 0.47 µM, the TGI [46] was 14.2 µM and the GI50 [47] was 0.0656 µM. It also gave a TGI [47] of 10.3 µM, a GI50 [48] of 0.335 µM and a TGI [48] of 2.24 µM. It also gave a GI50 [49] of 1.06 µM, a TGI [49] of 11.8 µM and a GI50 [50] of 2.31 µM. It also gave a TGI [50] of 13.1 µM, a GI50 [51] of 0.521 µM and a TGI [51] of 1.7 µM. For the same compound, the GI50 [52] was 1.38 µM, the TGI [52] was 3.05 µM and the GI50 [53] was 0.478 µM. The TGI [53] was 2.97 µM, the GI50 [54] was 0.958 µM and the TGI [54] was 2.28 µM.
With `CCCCCCCCCCCCCCCC[N+](C)(C)Cc1ccc(F)cc1` the TGI [2] was 88.7 µM, the TGI [3] was 11.3 µM and the TGI [55] was 10.1 µM. It also gave a TGI [4] of 8.87 µM, a TGI [56] of 15.6 µM and a TGI [5] of 3.28 µM. For the same compound, the TGI [57] was 2.87 µM, the TGI [6] was 20.8 µM and the TGI [7] was 6.01 µM. The TGI [10] was 34.9 µM, the TGI [58] was 3.44 µM and the TGI [14] was 5.78 µM. For the same compound, the TGI [15] was 1.57 µM, the TGI [17] was 2.33 µM and the TGI [19] was 3.05 µM. For the same compound, the TGI [21] was 3.67 µM, the TGI [23] was 3.99 µM and the TGI [25] was 9.58 µM. The TGI [26] was 14.2 µM, the TGI [28] was 2.03 µM and the TGI [29] was 57.1 µM. It also gave a TGI [30] of 5.49 µM, a TGI [32] of 3.79 µM and a TGI [33] of 3.11 µM. The TGI [34] was 2.51 µM, the TGI [38] was 7.69 µM and the TGI [39] was 2.31 µM. For the same compound, the TGI [40] was 2.82 µM, the TGI [41] was 15.1 µM and the TGI [43] was 6.68 µM. For the same compound, the TGI [47] was 4.23 µM, the TGI [49] was 25.9 µM and the TGI [50] was 4.8 µM. For the same compound, the TGI [52] was 4.92 µM, the TGI [53] was 4.45 µM and the TGI [54] was 31.1 µM.
